# Results taken from US20120219613A1 (priority 2009, published 2012).
# Columns and labels:
# [1] = tested on: Ebola; assay: microbe, parasite or virus in culture; format: cell-based; settings: Zaire ebolavirus, read-out: Activity
# [2] = tested on: Marburg; assay: organism not typed; format: cell-based, Musoke/Ravn; settings: read-out: Activity
# [3] = tested on: Influenza A; assay: microbe, parasite or virus in culture; format: cell-based, WSN H1N1; settings: read-out: Activity
# [4] = tested on: Junín; assay: organism not typed; format: cell-based; settings: read-out: Activity
# [5] = tested on: Rift Valley Fever; assay: organism not typed; format: cell-based; settings: read-out: Activity
# [6] = tested on: LaCrosse; assay: organism not typed; format: cell-based; settings: read-out: Activity
# [7] = tested on: Nipah; assay: organism not typed; format: cell-based, Malaysia
# [8] = tested on: Omsk; assay: organism not typed; format: cell-based, Omsk Hemorrhagic Fever, Guriev; settings: read-out: Activity
# [9] = tested on: RSSE; assay: organism not typed; format: cell-based, Russian Spring Summer Encephalitis, Sofiin; settings: read-out: Activity
# [10] = tested on: PIV-5; assay: organism not typed; format: cell-based; settings: read-out: Activity
# [11] = tested on: HPIV-3; assay: microbe, parasite or virus in culture; format: cell-based; settings: Human respirovirus 3, read-out: Activity
# [12] = tested on: NDV; format: cell-based, Newcastle Disease, rNDV/F3aa-GFP
# [13] = tested on: HIV-1; assay: microbe, parasite or virus in culture; format: cell-based; settings: Human immunodeficiency virus 1, read-out: Activity
# [14] = tested on: Murine Leukemia; assay: cells; format: cell-based, F57; settings: Mus musculus, read-out: Activity
# [15] = tested on: Yellow Fever; assay: organism not typed; format: cell-based, Asibi; settings: read-out: Activity
# [16] = tested on: Hepatitis C Virus; assay: microbe, parasite or virus in culture; format: cell-based; settings: read-out: Activity
# [17] = tested on: West Nile Virus; assay: microbe, parasite or virus in culture; format: cell-based; settings: read-out: Activity
# [18] = tested on: Vesicular; assay: microbe, parasite or virus in culture; format: cell-based, Vesicular Stomatitis, Indiana
# [19] = tested on: Cowpox; assay: organism not typed; format: cell-based, Brighton; settings: read-out: Activity
# [20] = tested on: Vaccinia; assay: microbe, parasite or virus in culture; format: cell-based, VTF1.1; settings: Orthopoxvirus vaccinia, read-out: Activity
# [21] = tested on: Adenovirus; assay: microbe, parasite or virus in culture; format: cell-based; settings: unidentified adenovirus, read-out: Activity
# [22] = tested on: Coxsackie B; assay: organism not typed; format: cell-based; settings: read-out: Activity
# [23] = tested on: Reovirus; assay: microbe, parasite or virus in culture; format: cell-based; settings: Reovirus sp., read-out: Activity
# [24] = tested on: NiV-pVSV; assay: microbe, parasite or virus in culture; format: cell-based, Nipah virus envelope pseudotyped onto VSV
# [25] = tested on: VSV-G pseudotyped VSV; format: cell-based, Vesicular Stomatitis virus
# [26] = tested on: VSV transcription; format: biochemical, VSV-Indiana
# [27] = tested on: live VSV and NiV-pVSV; format: cell-based
# [28] = tested on: Vero cells infected with pVSV; format: cell-based
# [29] = tested on: pVSV; format: cell-based
# [30] = tested on: Vero cells; format: cell-based
# [31] = tested on: NiV-pVSV; format: cell-based
# [32] = tested on: pVSV particles
# [33] = tested on: RVFV MP-12; format: cell-based, Rift Valley fever virus
# [34] = tested on: NiV-pseudotyped pVSV binding to ephrinB2; format: cell-based
# [35] = tested on: NiV VLPs; format: cell-based, Nipah virus
# [36] = tested on: NiV envelope mediated cell-cell fusion; format: cell-based
# [37] = tested on: HIV-1 (JRCSF); format: cell-based
# [38] = tested on: Vero cells
# [39] = tested on: Vero cells; remark: listed apart in the source
# [40] = mouse, in vivo
# [41] = male, Sprague-Dawley, rat, in vivo
# [42] = in vivo; settings: male, Sprague-Dawley, rat, ip
smiles,measurement,setting,value
"C=CCN1C(=O)/C(=C/c2ccc(-c3ccccc3)o2)SC1=S [LJ-001, (Z)-3-Allyl-5-(5-phenyl-2-furyl)methylene-4-oxothiazolidine-2-thione]",IC50,[1],500 to 1000 nM
same,IC50,[2],500 to 1000 nM
same,IC50,[3],< 500 nM
same,IC50,[4],500 to 1000 nM
same,IC50,[5],< 500 nM
same,IC50,[6],< 500 nM
same,infection and infectious spread of live NiV,[7],inhibit infection and infectious spread
same,IC50,[7]; read-out: Activity,500 to 1000 nM
same,IC50,[8],500 to 1000 nM
same,IC50,[9],500 to 1000 nM
same,IC50,[10],500 to 1000 nM
same,IC50,[11],500 to 1000 nM
same,IC50,[12],500 to 1000 nM
same,IC50,[13],500 to 1000 nM
same,IC50,[14],500 to 1000 nM
same,IC50,[15],< 500 nM
same,IC50,[16],< 500 nM
same,IC50,[17],< 500 nM
same,infection and infectious spread of live VSV,[18],inhibit infection and infectious spread
same,IC50,"[18]; Vesicular stomatitis virus, read-out: Activity",500 to 1000 nM
same,IC50,[19],1000 to 5000 nM
same,IC50,[20],500 to 1000 nM
same,IC50,[21],> 10000 nM
same,IC50,[22],> 10000 nM
same,IC50,[23],> 10000 nM
same,effect of pre-treatment temperature and duration on antiviral activity,[24],no significant effect
same,reporter virus entry via Nipah virus envelope (NiV-F/G),[24],inhibited reporter virus entry
same,IC50,"[24]; Vesicular stomatitis virus, Vero, read-out: in vitro IC50 concentrations",~1000 nM
same,reporter virus entry via Vesicular Stomatitis virus envelope proteins (VSV-G),[25],inhibited reporter virus entry
same,"viral transcription, mRNA production, and mRNA capping of VSV",[26],unaffected
same,infectivity of treated virus after 4 h PBS wash and secondary repurification,[27],remained non-infectious
same,infectivity of treated virus after washing and repurification,[27],non-infectious
same,inhibitory effect after washing pre-treated target cells,[28],Washing the cells reversed the inhibitory effect
same,inhibitory effect versus time of addition,[29],"apparent only when the compound was added before or during, but not after, the viral infection period"
same,intercalation into cellular membranes,[30],dose-dependent increase in fluorescence
same,effect of compound pre-incubated with saturating liposomes on viral infection,[31],no effect on viral infection
same,"effect of excess liposomes, virus pre-exposed to compound",[31],no longer able to rescue viral infection
same,effect of liposome size on binding or reversal of inhibition,[31],no effect
same,"effect of liposomes, virus and liposomes simultaneously subjected to compound",[31],competed off virus infection
same,virion membrane morphology by EM,[32],significant distortion of the viral membrane
same,infectivity of gradient fractions,[33],completely non-infectious
same,reduction in infectivity,[33],≥ 5 log
same,virus-cell binding,[34],still bound cognate cell surface receptors
same,cytoplasmic delivery of beta-lactamase matrix fusion protein,[35],inhibited cytoplasmic delivery
same,NiV envelope mediated cell-cell fusion,[36],did not inhibit
same,sensitivity of passaged virus to compound,[37],no evidence of decreased sensitivity
same,toxic effects in AK and LD enzyme release assays,[38],little to no toxic effects
same,active cell metabolism (Alamar Blue uptake),[39],no effect on active cell metabolism
same,complete blood counts with differential,[40],no difference relative to the vehicle control group
same,hematocrit and hemoglobin levels,[40],normal
same,"liver function tests, kidney function tests, serum electrolytes",[40],all normal and equivalent to the vehicle control mice
same,serum cholesterol levels,[40],statistically significant elevation
same,"serum metabolites (glucose, phosphate, triglycerides)",[40],normal
same,weight loss,[40],< 10%
same,"peak serum concentration, 20 mg/kg group versus 50 mg/kg group",[41],higher peak serum concentration than the 50 mg/kg group
same,time until serum levels approach in vitro IC50 concentrations,[41]; ip,about 2 hours
same,half-life,[42],~4 h
